According to US20110118269A1, “FUSED PYRAZINE COMPOUNDS AS THEIR SALTS, USEFUL FOR THE TREATMENT OF DEGENERATIVE AND INFLAMMATORY DISEASES” (priority 2009, published 2011):
Values after ≈ are worked out from the molar mass of the structure shown.

Columns and labels:
[1] = tested on: Collagen-Induced Arthritis model; experiment: CIA model; type: in vivo, mouse; details: 3 or 30 mg/kg/d, daily for 14 days
Method: Complete Freund Adjuvant/Collagen II (CFA/Coll II, bovine) is injected (1 mg/mL, 100 μL per animal) into the tail (intradermic) at the start of the experiment. Incomplete Freund Adjuvant /Collagen II (IFA/Coll II) is injected into the tail at the same level (1 mg/mL, 100 μL per animal) 21 days after CFA/Coll II injection. Animals are then randomized based on score and assigned to treatment groups assuring an equal distribution of score in the different groups. Treatment with either the test compound (1 mg/kg/d, 3 mg/kg/d or 30 mg/kg/d), positive control (Enbrel, 10 mg/kg/3× week, ip) or vehicle (Methyl Cellulose, 1% DMSO) starts at day 8 post IFA/Coll II-boost (i.e. […] of the experiment). Animals are dosed daily with the test compound, positive control or vehicle for 14 days. The animals are scored daily for clinical symptoms, scoring is reported for the individual paws. During the treatment period the body weight of the animals is monitored. Bone protection is analysed by x-ray imaging.

[2] = Aqueous solubility determination (Example 4); type: physicochemical
Method: Each salt is suspended in water and shaken for 24 h at 22° C. and 400 rpm. The resulting suspensions are filtered (0.2-μm filter). The obtained solids are analyzed by FT Raman. The pH of the filtrate is measured, and the concentration of the free base is determined by HPLC.

[3] = tested on: MMP1 expression by synovial fibroblasts; experiment: 'MMP assay': complex trigger induced MMP1 expression by RASFs, compound testing; type: cell-based; details: Homo sapiens, Fibroblast, 48 hrs
Method: A 384-well format ELISA for measurement of MMP1 is developed. Various primary antibodies are tested, as well as various ELISA protocols. The following protocol is developed and validated to measure MMP1 levels in SF supernatant in 384 well plates: white Lumitrac 600 384 well plates (Greiner) are coated with 2 μg/mL anti-MMP1 antibody MAB1346 (Chemicon). The antibody is diluted in buffer 40 (1.21 g Tris base (Sigma), 0.58 g NaCl (Calbiochem) and 5 mL 10% NaN3 (Sigma) in 1 L milliQ water and adjusted to pH 8.5). After overnight incubation at 4° C., plates are washed with PBS (80 g NaCl, 2g KCl (Sigma), 11.5 g Na2HPO4.7H2O and 2 g KH2PO4 in 10 L milliQ; pH 7.4) and blocked with 100 μL/well Casein buffer (2% Casein (VWR International) in PBS). Next day, casein buffer is removed from ELISA plates and replaced by 50 μL/well EC buffer (4 g casein, 2.13 g Na2HPO4 (Sigma), 2 g bovine albumin (Sigma), 0.69 g NaH2PO4.H2O (Sigma), 0.5 g CHAPS (Roche), 23.3 g NaCl, 4 mL 0.5 M EDTA pH 8 (Invitrogen), 5 mL 10% NaN3 in 1 L milliQ and adjusted to pH 7.0). 0.25 mM DTT (Sigma) is added to the thawed samples plates. After removal of the EC buffer, 20 μL of sample is transferred to the ELISA plates. […] Readout is performed on the Luminoscan Ascent Luminometer (Labsystems) with an integration time of 200 msec or with an Envision reader (Perkin Elmer). […]

TNF-α = experiment: Septic shock model (LPS induced TNF alpha release); type: in vivo, BALB/cJ female mice; details: 3, 10 and 20 mg/kg, po, once, 30 min before LPS
Method: Injection of lipopolysaccharide (LPS) induces a rapid release of soluble tumour necrosis factor (TNF-α) into the periphery. This model is used to analyse prospective blockers of TNF release in vivo.
Six BALB/cJ female mice (20 g) per group are treated at the intended dosing once, po. Thirty minutes later, LPS (15 mg/kg; E. coli serotype 0111:B4) is injected ip. Ninety minutes later, mice are euthanized and blood is collected. Circulating TNF alpha levels are determined using commercially available ELISA kits. Dexamethasone (5 mg/kg) is used as a reference anti-inflammatory compound. Compound 1 is efficacious at 3, 10 and 20 mg/kg, po.

- Filtrate pH ([2]; filtrate of the aqueous suspension after 24 h): 6.9
- solubility at 24 h ([2]; thermodynamic from solid, water, shaken 24 h at 22° C., free base concentration by HPLC, read-out: Measured solubility): 70 µg/mL (≈ 153 µM)
SMILES: CC(C)N1C[C@@H]2C[C@H]1CN2c1ccc(Nc2ncc(-c3coc(C(N)=O)c3)n3ncnc23)cc1 [Compound 1, 4-{8-[4-((1S,4S)-5-Isopropyl-2,5-diaza-bicyclo[2.2.1]hept-2-yl)-phenylamino]-[1,2,4]triazolo[1,5-a]pyrazin-5-yl}-furan-2-carboxamide]
- efficacy in CIA model [1]: efficacious
- IC50 [3]: 100 to 1000 nM
- efficacy in septic shock model (circulating TNF alpha levels) (TNF-α): efficacious
